Assay results from patent publication US9815846B2 (Merck Sharp & Dohme Corp., priority 2014, dated 2017).

Target: human TrkA receptor (Homo sapiens (Human), UniProt P04629)
Assay: DiscoverX PathHunter TrkA functional assay (NGF-stimulated U2OS cells)
Format: cell-based
Conditions: U2OS cells expressing human TrkA-PK, Shc1-EA and p75NTR; compound 1 h, then NGF at ~80% of maximal response for 3 h; luminescence

Sequence of human TrkA receptor (P04629 33-796): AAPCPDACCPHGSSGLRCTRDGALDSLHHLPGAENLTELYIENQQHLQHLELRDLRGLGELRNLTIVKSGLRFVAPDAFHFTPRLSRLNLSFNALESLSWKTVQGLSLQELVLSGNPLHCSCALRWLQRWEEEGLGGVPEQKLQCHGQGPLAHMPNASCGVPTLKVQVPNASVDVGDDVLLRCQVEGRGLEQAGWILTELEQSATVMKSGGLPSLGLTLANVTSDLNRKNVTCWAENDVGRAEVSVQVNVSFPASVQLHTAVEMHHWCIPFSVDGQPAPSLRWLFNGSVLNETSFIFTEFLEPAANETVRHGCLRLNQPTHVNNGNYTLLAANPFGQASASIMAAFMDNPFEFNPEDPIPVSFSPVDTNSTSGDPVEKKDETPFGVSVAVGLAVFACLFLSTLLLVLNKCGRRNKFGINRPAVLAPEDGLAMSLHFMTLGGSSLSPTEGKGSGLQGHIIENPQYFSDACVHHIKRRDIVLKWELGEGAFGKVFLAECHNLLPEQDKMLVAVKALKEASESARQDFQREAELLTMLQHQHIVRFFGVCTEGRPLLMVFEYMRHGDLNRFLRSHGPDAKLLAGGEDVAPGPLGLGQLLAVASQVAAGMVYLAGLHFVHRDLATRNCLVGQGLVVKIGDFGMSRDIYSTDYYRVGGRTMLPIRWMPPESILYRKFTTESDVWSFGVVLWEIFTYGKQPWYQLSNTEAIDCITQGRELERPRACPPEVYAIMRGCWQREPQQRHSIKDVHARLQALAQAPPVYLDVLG

SMILES	IC50
Cn1ccc(-c2cc(C(=O)Nc3ccc(C4CNC(=O)N4)nc3-c3ccccc3)c(F)cc2C(F)(F)F)n1 (centres unmarked) [Example 215, 2-Fluoro-5-(1-methyl-1H-pyrazol-3-yl)-N-(6-(2-oxoimidazolidin-4-yl)-2-phenylpyridin-3-yl)-4-(trifluoromethyl)benzamide]	0.36 nM
Cn1ccc(-c2cc(C(=O)Nc3cnc(OCC(N)=O)nc3-c3ccccc3)c(F)cc2C(F)(F)F)n1 [Example 216, N-(2-(2-Amino-2-oxoethoxy)-4-phenylpyrimidin-5-yl)-2-fluoro-5-(1-methyl-1H-pyrazol-3-yl)-4-(trifluoromethyl)benzamide]	1.8 nM
Cn1ccc(-c2cc(C(=O)Nc3cnc(CN4CCCC4=O)nc3-c3ccccc3)c(F)cc2C(F)(F)F)n1 [Example 219, 2-fluoro-5-(1-methyl-1H-pyrazol-3-yl)-N-(2-((2-oxopyrrolidin-1-yl)methyl)-4-phenylpyrimidin-5-yl)-4-(trifluoromethyl)benzamide]	0.32 nM
Cn1ccc(-c2cc(C(=O)Nc3cnc(CN4CCCCC4=O)nc3-c3ccccc3)c(F)cc2C(F)(F)F)n1 [Example 220, 2-fluoro-5-(1-methyl-1H-pyrazol-3-yl)-N-(2-((2-oxopiperidin-1-yl)methyl)-4-phenylpyrimidin-5-yl)-4-(trifluoromethyl)benzamide]	1 nM
Cn1ccc(-c2cc(C(=O)Nc3cnc(CN4CCCCCC4=O)nc3-c3ccccc3)c(F)cc2C(F)(F)F)n1 [Example 221, 2-fluoro-5-(1-methyl-1H-pyrazol-3-yl)-N-(2-((2-oxoazepan-1-yl)methyl)-4-phenylpyrimidin-5-yl)-4-(trifluoromethyl)benzamide]	1.9 nM
Cn1ccc(-c2cc(C(=O)Nc3cnc(CN4CCCOC4=O)nc3-c3ccccc3)c(F)cc2C(F)(F)F)n1 [Example 222, 2-fluoro-5-(1-methyl-1H-pyrazol-3-yl)-N-(2-((2-oxo-1,3-oxazinan-3-yl)methyl)-4-phenylpyrimidin-5-yl)-4-(trifluoromethyl)benzamide]	0.22 nM

Continued, values first:

IC50	SMILES
1.6 nM	Cn1ccc(-c2cc(C(=O)Nc3cnc(CN4CCOCC4=O)nc3-c3ccccc3)c(F)cc2C(F)(F)F)n1 [Example 223, 2-fluoro-5-(1-methyl-1H-pyrazol-3-yl)-N-(2-((3-oxomorpholino)methyl)-4-phenylpyrimidin-5-yl)-4-(trifluoromethyl)benzamide]
1.6 nM	Cn1ccc(-c2cc(C(=O)Nc3cnc(Cn4ccnc4)nc3-c3ccccc3)ccc2C(F)(F)F)n1 [Example 224, N-(2-((1H-imidazol-1-yl)methyl)-4-phenylpyrimidin-5-yl)-3-(1-methyl-1H-pyrazol-3-yl)-4-(trifluoromethyl)benzamide]
1.2 nM	Cn1ccc(-c2cc(C(=O)Nc3cnc(Cn4cccnc4=O)nc3-c3ccccc3)c(F)cc2C(F)(F)F)n1 [Example 225, 2-fluoro-5-(1-methyl-1H-pyrazol-3-yl)-N-(2-((2-oxopyrimidin-1(2H)-yl)methyl)-4-phenylpyrimidin-5-yl)-4-(trifluoromethyl)benzamide]
0.35 nM	Cn1ccc(-c2cc(C(=O)Nc3cnc(Cn4ccc(=O)[nH]c4=O)nc3-c3ccccc3)c(F)cc2C(F)(F)F)n1 [Example 226, N-(2-((2,4-dioxo-3,4-dihydropyrimidin-1(2H)-yl)methyl)-4-phenylpyrimidin-5-yl)-2-fluoro-5-(1-methyl-1H-pyrazol-3-yl)-4-(trifluoromethyl)benzamide]
0.24 nM	Cn1ccc(-c2cc(C(=O)Nc3cnc(Cn4cn[nH]c4=O)nc3-c3ccccc3)c(F)cc2C(F)(F)F)n1 [Example 227, 2-fluoro-5-(1-methyl-1H-pyrazol-3-yl)-N-(2-((5-oxo-1,5-dihydro-4H-1,2,4-triazol-4-yl)methyl)-4-phenylpyrimidin-5-yl)-4-(trifluoromethyl)benzamide]
